Values quoted from earlier work in patent US9426985B2, “Compositions and methods to modulate the rate of EBIS production from dithiocarbamate fungicides” (Dow Agrosciences LLC, priority 2012, dated 2016).

Assays:
[1] = tomato leaves

Compound | half-life on the leaf surface | time to peak EBIS levels after application [1]
S=C1SSC2=NCCN12 [EBIS, ethylene bisisthiocyanate sulfide] | less than 2 days | 
mancozeb |  | about two
